Article PMC4847013, “Pronounced peptide selectivity for melanoma through tryptophan end-tagging” (Scientific Reports, 2016)
Structures can show the parent of a compound that is named as a salt. Ends that are not written are not given here.

Legend:
tumor cells = system: tumor cells; design: method as in PMID 20876209, PMID 20406839; conditions: cited from earlier work
Description: However, since it is taken up by tumor cells through passive diffusion, the overall response rate of doxorubicin is only about 30%[51][52].

erythrocytes = assay: Hemolysis assay; assay type: cell-based; conditions: 5% erythrocytes in PBS pH 7.4, 1 h, 37 °C, peptides 60 or 120 μM, % of 2% Triton X-100, triplicate, Fig. 8b
Method: EDTA-blood was centrifuged at 800 g for 10 min, whereafter plasma and buffy coat were removed. The erythrocytes were washed three times and resuspended to 5% in PBS, pH 7.4. The cells were then incubated with end-over-end rotation for 1 h at 37 °C in the presence of peptides (60 or 120 μM). 2% Triton X-100 (Sigma-Aldrich, St. Louis, USA) served as positive control. The samples were then centrifuged at 800 g for 10 min. The absorbance of hemoglobin release was measured at 540 nm and is expressed as % of Triton X-100 induced hemolysis. Results given represent mean values from triplicate measurements.

fibroblasts = assay: Lactate dehydrogenase (LDH) assay; assay type: cell-based; conditions: 48 h, 1% FBS, LDH release relative to 1% Triton X-100, triplicate, Fig. 8a

Compound | overall response rate (tumor cells) | Concentration up to which hemolysis is very low, at the background level of the negative control (erythrocytes) | Concentration up to which no significant toxicity is seen (LDH release) (fibroblasts)
COc1cccc2c1C(=O)c1c(O)c3c(c(O)c1C2=O)C[C@@](O)(C(=O)CO)C[C@@H]3O[C@H]1C[C@H](N)[C@H](O)[C@H](C)O1 [doxorubicin, Doxorubicin hydrochloride] | about 30% | – | –
GRRPRPRPRP [GRR10] | – | at least 120 μM | at least 50 μM
GRRPRPRPRPWWWW [GRR10W4] | – | at least 120 μM | at least 50 μM
